Results on 21 compounds are retold here after patent US10479795B2 (Incyte Corporation, priority 2016, dated 2019).

Each structure is given as a SMILES string. Structures can show the parent of a compound that is named as a salt. Where two headings read alike, the source gives them in different places.

Usually IC50 stands for the concentration at which inhibition is half-maximal.

Test [1] has as its system Phosphorylated Ribosomal Protein S6 (RPS6). In words: THP-1 RPS6 ELISA Assay. The following applies: THP-1 cells, read-out: PI3Kγ_THP1_RPS6_ELISA IC50. Format: cell-based, Human. In a few lines: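 IC50 values come from a curve of percent inhibition against log compound concentration, using phospho-RPS6 ELISA (450 nm) on THP-1 lysates. Cells were serum-starved overnight, exposed to compound for 2 h at 37 °C, then challenged 15 min with 10 nM MCP-1.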
On the technique in general: An ELISA detects its analyte on a solid surface through an enzyme-linked reagent.

Test [2] addresses PI3Kγ (p110γ) Recombinant Human Protein (Homo sapiens (Human), UniProt P48736). The test is described as follows: PI3K-γ Scintillation Proximity Assay. Format: biochemical. The following applies: read-out: PI3Kγ IC50. In a few lines: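 Radiometric SPA readout: […] bound to WGA beads after overnight shaking, IC50 derived from % activity of DMSO control. Reaction used human p110γ, 2 μM ATP, 20 μM PIP2, pH 6.7 MOPS buffer with MgCl2, DTT, CHAPS, 2% DMSO, room temperature.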
On the technique in general: Scintillation proximity formats need no separation of bound from free tracer.

In test [3] the target is PI3Kδ (p110δ/p85α) Recombinant Human Protein (Homo sapiens (Human), UniProt O00329). The test is described as follows: PI3Kδ Scintillation Proximity Assay. Format: biochemical. A digest of the protocol: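 IC50 was fitted to percent solvent-control activity from SPA scintillation counts after WGA bead capture of 33P-labelled lipid product. Reaction: 120 min, room temperature, 3.4 nM p110δ/p85α, 20 μM PIP2, 2 μM ATP with tracer, MOPS pH 6.7 buffer containing MgCl2, DTT, CHAPS, 2% DMSO.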
Sequence of PI3Kδ (p110δ/p85α) Recombinant Human Protein (O00329 whole entry): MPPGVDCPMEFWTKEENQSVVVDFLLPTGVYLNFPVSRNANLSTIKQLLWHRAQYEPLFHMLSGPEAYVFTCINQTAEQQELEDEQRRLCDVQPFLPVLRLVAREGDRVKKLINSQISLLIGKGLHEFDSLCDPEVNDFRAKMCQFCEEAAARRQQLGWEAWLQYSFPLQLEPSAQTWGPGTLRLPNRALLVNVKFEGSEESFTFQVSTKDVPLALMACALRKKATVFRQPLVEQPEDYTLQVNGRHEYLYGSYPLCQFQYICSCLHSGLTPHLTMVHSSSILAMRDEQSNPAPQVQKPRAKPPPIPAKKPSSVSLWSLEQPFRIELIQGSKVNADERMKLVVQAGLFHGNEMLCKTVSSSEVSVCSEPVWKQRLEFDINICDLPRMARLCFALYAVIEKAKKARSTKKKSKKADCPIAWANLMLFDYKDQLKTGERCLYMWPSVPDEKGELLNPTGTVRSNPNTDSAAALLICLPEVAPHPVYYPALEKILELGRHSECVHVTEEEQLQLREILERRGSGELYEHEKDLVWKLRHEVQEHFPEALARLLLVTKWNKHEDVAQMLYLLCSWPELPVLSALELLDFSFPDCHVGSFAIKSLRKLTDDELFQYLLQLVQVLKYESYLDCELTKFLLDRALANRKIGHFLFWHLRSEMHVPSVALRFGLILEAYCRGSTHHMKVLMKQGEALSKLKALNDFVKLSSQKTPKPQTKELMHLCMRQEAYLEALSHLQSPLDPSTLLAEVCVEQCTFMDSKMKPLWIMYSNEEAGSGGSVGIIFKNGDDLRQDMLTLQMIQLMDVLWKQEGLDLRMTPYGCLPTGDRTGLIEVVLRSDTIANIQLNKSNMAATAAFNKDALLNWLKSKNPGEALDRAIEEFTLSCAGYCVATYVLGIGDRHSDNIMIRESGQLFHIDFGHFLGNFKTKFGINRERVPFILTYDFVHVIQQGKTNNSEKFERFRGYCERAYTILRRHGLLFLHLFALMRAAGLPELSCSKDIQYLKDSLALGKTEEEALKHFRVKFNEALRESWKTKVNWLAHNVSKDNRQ
Sequence of PI3Kδ (p110δ/p85α) Recombinant Human Protein (P27986 whole entry partner): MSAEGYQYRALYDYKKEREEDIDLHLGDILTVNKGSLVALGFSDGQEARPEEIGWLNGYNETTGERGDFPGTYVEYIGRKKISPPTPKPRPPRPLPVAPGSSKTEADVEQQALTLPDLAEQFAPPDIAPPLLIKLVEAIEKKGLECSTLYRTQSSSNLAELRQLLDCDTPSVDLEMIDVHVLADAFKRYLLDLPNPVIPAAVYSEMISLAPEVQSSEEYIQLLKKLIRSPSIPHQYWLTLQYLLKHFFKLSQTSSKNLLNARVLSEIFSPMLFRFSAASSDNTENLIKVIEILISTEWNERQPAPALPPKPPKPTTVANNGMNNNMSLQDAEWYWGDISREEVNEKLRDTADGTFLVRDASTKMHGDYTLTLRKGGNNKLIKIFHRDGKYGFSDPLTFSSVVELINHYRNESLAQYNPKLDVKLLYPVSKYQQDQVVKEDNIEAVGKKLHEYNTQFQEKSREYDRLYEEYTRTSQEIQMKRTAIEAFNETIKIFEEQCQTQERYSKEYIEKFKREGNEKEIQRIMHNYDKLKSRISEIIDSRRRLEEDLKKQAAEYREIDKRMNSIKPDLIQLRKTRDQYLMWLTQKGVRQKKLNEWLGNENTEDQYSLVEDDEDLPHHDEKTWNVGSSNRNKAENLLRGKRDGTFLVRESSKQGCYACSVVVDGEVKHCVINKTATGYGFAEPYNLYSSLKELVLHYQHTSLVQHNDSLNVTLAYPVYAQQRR

Sequence of PI3Kγ (p110γ) Recombinant Human Protein (P48736 whole entry): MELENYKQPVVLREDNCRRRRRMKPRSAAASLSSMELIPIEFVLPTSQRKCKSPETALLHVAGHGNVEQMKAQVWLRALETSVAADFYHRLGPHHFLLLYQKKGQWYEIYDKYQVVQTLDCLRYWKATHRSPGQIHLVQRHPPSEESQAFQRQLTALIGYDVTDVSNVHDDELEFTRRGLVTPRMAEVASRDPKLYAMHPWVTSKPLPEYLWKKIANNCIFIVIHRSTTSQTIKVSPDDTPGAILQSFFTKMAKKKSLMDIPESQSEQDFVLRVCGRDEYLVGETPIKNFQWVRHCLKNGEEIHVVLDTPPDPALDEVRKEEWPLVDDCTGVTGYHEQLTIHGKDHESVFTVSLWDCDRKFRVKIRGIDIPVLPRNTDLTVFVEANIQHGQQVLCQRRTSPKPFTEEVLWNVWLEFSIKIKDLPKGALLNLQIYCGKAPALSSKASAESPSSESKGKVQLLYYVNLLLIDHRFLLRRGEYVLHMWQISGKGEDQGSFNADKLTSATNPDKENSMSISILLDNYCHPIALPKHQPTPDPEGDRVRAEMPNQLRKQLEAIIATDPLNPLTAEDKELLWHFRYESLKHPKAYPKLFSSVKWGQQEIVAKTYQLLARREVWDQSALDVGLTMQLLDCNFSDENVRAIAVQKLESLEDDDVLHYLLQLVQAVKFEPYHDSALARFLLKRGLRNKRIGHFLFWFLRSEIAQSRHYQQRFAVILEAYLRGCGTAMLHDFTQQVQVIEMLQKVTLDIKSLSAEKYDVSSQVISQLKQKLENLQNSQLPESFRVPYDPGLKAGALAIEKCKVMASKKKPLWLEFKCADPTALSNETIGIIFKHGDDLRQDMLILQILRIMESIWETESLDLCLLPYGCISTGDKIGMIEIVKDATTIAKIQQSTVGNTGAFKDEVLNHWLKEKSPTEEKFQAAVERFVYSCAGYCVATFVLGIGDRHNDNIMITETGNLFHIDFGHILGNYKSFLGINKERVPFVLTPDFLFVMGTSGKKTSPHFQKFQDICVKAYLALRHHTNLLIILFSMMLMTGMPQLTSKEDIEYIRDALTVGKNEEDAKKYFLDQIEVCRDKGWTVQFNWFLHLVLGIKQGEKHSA

Consider `Cc1ccc(S(=O)(=O)CC2(O)CCC2)cc1-c1cnc2c(N)nc(-c3ccncc3F)cn12` [Example 503, 1-(((3-(8-Amino-6-(3-fluoropyridin-4-yl)imidazo[1,2-a]pyrazin-3-yl)-4-methylphenyl)sulfonyl)methyl)cyclobutan-1-ol], for which the half-inhibitory concentration (IC50) is 100 to 500 nM in test [1] (Homo sapiens), below 100 nM in test [2] and below 100 nM in test [3].

For the compound `Cc1ccc(S(=O)(=O)NC2CCCCC2O)cc1-c1cnc2c(N)ncnn12` (stereo not drawn) [Example 137, 3-(4-aminoimidazo[2,1-f][1,2,4]triazin-7-yl)-N-(2-hydroxycyclohexyl)-4-methylbenzenesulfonamide], the IC50 was above 1000 nM in test [1] (Homo sapiens), below 100 nM in test [2] and 500 to 2000 nM in test [3].

Turning to `Cc1cn2c(-c3cc(S(=O)(=O)N[C@H]4CC[C@](C)(O)CC4)ccc3C)cnc2c(N)n1` [Example 505, 3-(8-Amino-6-methylimidazo[1,2-a]pyrazin-3-yl)-N-((1r,4r)-4-hydroxy-4-methylcyclohexyl)-4-methylbenzenesulfonamide], the half-inhibitory concentration (IC50) was 100 to 500 nM in test [1] (Homo sapiens), below 100 nM in test [2] and below 100 nM in test [3].

Turning to `Cc1ccc(S(=O)(=O)N2CCC[C@H]2CO)cc1-c1cnc2c(N)nc(C(F)(F)F)nn12` [Example 347, (S)-(1-((3-(4-amino-2-(trifluoromethyl)imidazo[2,1-f][1,2,4]triazin-7-yl)-4-methylphenyl)sulfonyl)pyrrolidin-2-yl)methanol], the 50% inhibitory concentration (IC50) in test [1] (Homo sapiens) was below 100 nM; in test [2] it was below 100 nM; in test [3], 100 to 500 nM.

As for `Cc1ccc(S(=O)(=O)N[C@H]2COC[C@@H]2O)cc1-c1cnc2c(N)ncnn12` [Example 123, 3-(4-aminoimidazo[2,1-f][1,2,4]triazin-7-yl)-N-[(3S,4R)-4-hydroxytetrahydrofuran-3-yl]-4-methylbenzenesulfonamide], the IC50 was 500 to 1000 nM in test [1] (Homo sapiens), below 100 nM in test [2] and 500 to 2000 nM in test [3].

As for `COc1cnccc1-c1cn2c(-c3cc(S(C)(=O)=O)ccc3C)cnc2c(N)n1` [Example 485, 6-(3-Methoxypyridin-4-yl)-3-(2-methyl-5-(methylsulfonyl)phenyl)imidazo[1,2-a]pyrazin-8-amine trifluoroacetate], the IC50 in test [1] (Homo sapiens) was 100 to 500 nM; in test [2] it was below 100 nM; in test [3], 100 to 500 nM.

Regarding `C[C@]1(O)CC[C@H](NS(=O)(=O)c2cc(-c3cnc4c(N)nccn34)ccc2F)CC1` [Example 359, 5-(8-aminoimidazo[1,2-a]pyrazin-3-yl)-2-fluoro-N-((1r,4r)-4-hydroxy-4-methylcyclohexyl)benzenesulfonamide], the IC50 in test [1] was above 1000 nM; in test [2], below 100 nM; in test [3], 100 to 500 nM.

On to `N#CC12CCC(NS(=O)(=O)c3cc(-c4cnc5c(N)ncnn45)ccc3F)(C1)C2` [Example 365, 5-(4-Aminoimidazo[1,2-f][1,2,4]triazin-7-yl)-N-(4-cyanobicyclo[2.1.1]hexan-1-yl)-2-fluorobenzenesulfonamide trifluoroacetate salt], for which the IC50 in test [1] was 100 to 500 nM; in test [2], below 100 nM; in test [3], 100 to 500 nM.

On to `[2H]C([2H])([2H])c1ccc(S(=O)(=O)NC23CCC(O)(C2)C3)cc1-c1cnc2c(N)ncnn12` [Example 374, 3-(4-Aminoimidazo[2,1-f][1,2,4]triazin-7-yl)-N-(4-hydroxybicyclo[2.1.1]hexan-1-yl)-4-(methyl-d3)benzenesulfonamide], for which the IC50 was 500 to 1000 nM in test [1] (Homo sapiens), below 100 nM in test [2] and 500 to 2000 nM in test [3].

Take `Cc1cn2c(-c3cc(S(=O)(=O)N[C@@H]4CC[C@@H](C(C)(C)O)OC4)c(C)cc3C)cnc2c(N)n1` [Example 465, 5-(8-Amino-6-methylimidazo[1,2-a]pyrazin-3-yl)-N-((3R,6S)-6-(2-hydroxypropan-2-yl)tetrahydro-2H-pyran-3-yl)-2,4-dimethylbenzenesulfonamide]: the half-maximal inhibitory concentration (IC50) in test [1] (Homo sapiens) is 100 to 500 nM; in test [2], below 100 nM; in test [3], 500 to 2000 nM.

Consider `Cc1ccc(S(=O)(=O)N2CCCC(C(=O)O)C2)cc1-c1cnc2c(N)nc(C(F)(F)F)cn12` (stereo not drawn) [Example 510, 1-((3-(8-Amino-6-(trifluoromethyl)imidazo[1,2-a]pyrazin-3-yl)-4-methylphenyl)sulfonyl)piperidine-3-carboxylic acid trifluoroacetate], for which the IC50 in test [1] (Homo sapiens) was above 1000 nM; in test [2], below 100 nM; in test [3], 100 to 500 nM.

On to `Cc1ccc(S(=O)(=O)NCC2(CO)CCOCC2)cc1-c1cnc2c(N)nc(C(F)(F)F)nn12` [Example 334, 3-(4-Amino-2-(trifluoromethyl)imidazo[1,2-f][1,2,4]triazin-7-yl)-N-((4-(hydroxymethyptetrahydro-2H-pyran-4-yl)methyl)-4-methylbenzenesulfonamide trifluoroacetate salt], for which the IC50 was below 100 nM in test [1], below 100 nM in test [2] and 100 to 500 nM in test [3].

`Cc1ccc(S(=O)(=O)NC23CC(Cn4cncn4)(C2)C3)cc1-c1cnc2c(N)nc(C(F)(F)F)cn12` [Example 280, N-(3-((1H-1,2,4-triazol-1-yl)methyl)bicyclo[1.1.1]pentan-1-yl)-3-(8-amino-6-(trifluoromethyl)imidazo[1,2-a]pyrazin-3-yl)-4-methylbenzenesulfonamide]: the IC50 is 100 to 500 nM in test [1] (Homo sapiens), below 100 nM in test [2] and 100 to 500 nM in test [3].

`Cc1ccc(S(=O)(=O)NC2CC(F)(F)C2)cc1-c1cnc2c(N)ncnn12` [Example 132, 3-(4-aminoimidazo[2,1-f][1,2,4]triazin-7-yl)-N-(3,3-difluorocyclobutyl)-4-methylbenzenesulfonamide]: the values for the IC50 in test [1] (Homo sapiens), in test [2] and in test [3] were 100 to 500 nM, below 100 nM and 100 to 500 nM, respectively.

As to `Cc1ccc(S(=O)(=O)NC23CC(C(C)(C)O)(C2)C3)cc1-c1cnc2c(N)nc(C(F)(F)F)cn12` [Example 282, 3-(8-Amino-6-(trifluoromethyl)imidazo[1,2-a]pyrazin-3-yl)-N-(3-(2-hydroxypropan-2-yl)bicyclo[1.1.1]pentan-1-yl)-4-methylbenzenesulfonamide trifluoroacetate salt], the IC50 in test [1] (Homo sapiens) was below 100 nM; in test [2], below 100 nM; in test [3], 100 to 500 nM.

`N#CC12CCC(NS(=O)(=O)c3cc(-c4cnc5c(N)nc(C(F)(F)F)nn45)ccc3F)(C1)C2` [Example 417, 5-(4-Amino-2-(trifluoromethyl)imidazo[1,2-f][1,2,4]triazin-7-yl)-N-(4-cyanobicyclo[2.1.1]hexan-1-yl)-2-fluorobenzenesulfonamide trifluoroacetate salt]: the IC50 in test [1] is 500 to 1000 nM; in test [2], below 100 nM; in test [3], 100 to 500 nM.

With `Cc1ccc(S(=O)(=O)NC2CN(C)C2)cc1-c1cnc2c(N)nc(C(F)(F)F)nn12` [Example 322, 3-(4-Amino-2-(trifluoromethyl)imidazo[1,2-f][1,2,4]triazin-7-yl)-4-methyl-N-(1-methylazetidin-3-yl)benzenesulfonamide], the half-inhibitory concentration (IC50) in test [1] was below 100 nM; in test [2], below 100 nM; in test [3] it was 100 to 500 nM.

Regarding `Cc1ccc(S(=O)(=O)NC23CCC(C(N)=O)(C2)C3)cc1-c1cnc2c(N)nc(C(F)(F)F)cn12` [Example 291, 4-(3-(8-Amino-6-(trifluoromethyl)imidazo[1,2-a]pyrazin-3-yl)-4-methylphenylsulfonamido)bicyclo[2.1.1]hexane-1-carboxamide trifluoroacetate salt], the concentration for half-maximal inhibition (IC50) in test [1] (Homo sapiens) was 500 to 1000 nM; in test [2] it was below 100 nM; in test [3], 100 to 500 nM.

For the compound `Cc1ccc(S(=O)(=O)N[C@H]2CC[C@H](O)CC2)cc1-c1cnc2c(N)nc(-c3cccc(F)c3)cn12` [Example 21, 3-[8-Amino-6-(3-fluorophenyl)imidazo[1,2-a]pyrazin-3-yl]-N-(trans-4-hydroxycyclohexyl)-4-methylbenzenesulfonamide], the half-inhibitory concentration (IC50) in test [1] (Homo sapiens), in test [2] and in test [3] was below 100 nM each time.

Consider `Cc1cn2c(-c3cc(S(=O)(=O)NC45CC(C#N)(C4)C5)ccc3C)cnc2c(N)n1` [Example 264, 3-(8-Amino-6-methylimidazo[1,2-a]pyrazin-3-yl)-N-(3-cyanobicyclo[1.1.1]pentan-1-yl)-4-methylbenzenesulfonamide trifluoroacetate salt], for which the IC50 in test [1] (Homo sapiens) is 100 to 500 nM; in test [2], below 100 nM; in test [3], 100 to 500 nM.

With `Cc1ccc(S(=O)(=O)N[C@H]2CC[C@@](C)(O)CC2)cc1-c1cnc2c(N)ncnn12` [Example 133, 3-(4-aminoimidazo[2,1-f][1,2,4]triazin-7-yl)-N-((1S,4S)-4-hydroxy-4-methylcyclohexyl)-4-methylbenzenesulfonamide], the IC50 in test [1] is above 1000 nM; in test [2], below 100 nM; in test [3], 500 to 2000 nM.
